The values that follow are results of earlier work, collected in US7276253B2, “Stable drug form for oral administration with benzimidazole derivatives as active ingredient and process for the preparation thereof” (AstraZeneca AB, priority 1996, dated 2007).

For the series the following is noted: aqueous solution at pH values under 4.

Take `COc1ccc2[nH]c([S+]([O-])Cc3ncc(C)c(OC)c3C)nc2c1` (stereo not shown) [Omeprazole, 5-methoxy-2(((4-methoxy-3,5-dimethyl-2-pyridyl)methyl)-sulfinyl)-1H-benzimidazole]: the half-life result is “less than ten”.
